# Patent US20230310386A1, “INJECTABLE PHARMACEUTICAL COMPOSITIONS AND USES THEREOF” (Intervet Inc., priority 2020, published 2023)
# Where “and” joins values, the source holds several entries; their conditions need not be identical. Identical values can stand only once.
# Test: Dose accuracy study of the reconstituted composition comprising moxidectin and fluralaner
# Format: physicochemical
# Settings: reconstituted composition of Example 9, 1 mL doses #1-6
# Protocol: The vial comprising moxidectin microspheres from Example 3 and fluralaner particles from Example 7 were reconstituted with 17 mL of the aqueous carrier of Example 6. During reconstitution the vial containing the moxidectin microspheres and fluralaner particles was rotated while being held horizontally throughout carrier addition.
# Once all the carrier was added, the vial was shaken for 1 minute.
# Herein, the vial with the reconstituted composition as described above was manipulated in one of the following ways: • vigorously hand shaken for 1, 2 or 3 minutes prior to sampling; • vigorously hand shaken for 3 minutes and mixed using the syringe 5 times prior to sampling; or • vigorously hand shaken for 3 minutes, mixed using the syringe 5 times and vortexed for […] prior to sampling.
# After the solid material was completely suspended, six 1 mL doses were sampled from the vial. Prior to each dose, the vial was vigorously shaken for 15 seconds to avoid settling between samples.
# Each of the six doses were transferred to a separate 50 mL volumetric flask along with 10 mL of water: then the samples were diluted to volume with 50/50 acetonitrile/isopropanol and sonicated for 20 minutes.
# These samples were analysed to determine the moxidectin concentration.
# Additionally, 1 mL of the samples were transferred into separate 25 mL volumetric flasks and diluted with 40/40/20 acetonitrile/isopropanol/water. The fluralaner concentrations were determined from these diluted samples.
structure (smiles),measurement,setting,value
"Cc1cc(C2=NOC(c3cc(Cl)cc(Cl)c3)(C(F)(F)F)C2)ccc1C(=O)NCC(=O)NCC(F)(F)F (centres unmarked) [Fluralaner, 4-[5-(3,5-dichlorophenyl)-5-trifluoromethyl-4,5-dihydroisoxazol-3-yl]-2-methyl-N-[(2,2,2-trifluoro-ethylcarbamoyl)-methyl]-benzamide]",Fluralaner Percent Label Claim,hand shaken for 1 minute,104.38 Percent Label Claim and 90.80 Percent Label Claim and 102.68 Percent Label Claim and 101.83 Percent Label Claim and 106.97 Percent Label Claim and 103.52 Percent Label Claim
same,Fluralaner Percent Label Claim,hand shaken for 2 minutes,80.44 Percent Label Claim and 103.67 Percent Label Claim and 102.82 Percent Label Claim and 84.95 Percent Label Claim and 99.01 Percent Label Claim and 107.40 Percent Label Claim
same,Fluralaner Percent Label Claim,hand shaken for 3 minutes,95.36 Percent Label Claim and 102.59 Percent Label Claim and 95.41 Percent Label Claim and 99.43 Percent Label Claim and 108.06 Percent Label Claim and 88.68 Percent Label Claim
same,Fluralaner Percent Label Claim,hand shaken for 3 minutes and mixed using a syringe,105.95 Percent Label Claim and 104.31 Percent Label Claim and 89.74 Percent Label Claim and 105.87 Percent Label Claim and 104.26 Percent Label Claim and 103.83 Percent Label Claim
same,Fluralaner Percent Label Claim,"hand shaken for 3 minutes, mixed using a syringe, and vortexed",100.86 Percent Label Claim and 106.80 Percent Label Claim and 105.14 Percent Label Claim and 105.86 Percent Label Claim and 106.37 Percent Label Claim and 104.61 Percent Label Claim
